Test results published in patent US20080025960A1, “Detergents with stabilized enzyme systems” (priority 2006, published 2008).

Legend:
choline oxidase [1] = target: T1, choline oxidase (Arthrobacter globiformis, UniProt Q7X2H8); test: H2O2 in control buffer or AATCC liquid detergent stock with choline oxidase, choline and inhibitor; format: biochemical; conditions: for H2O2 PPM: 1 M choline
T1 sequence (Q7X2H8 1-546): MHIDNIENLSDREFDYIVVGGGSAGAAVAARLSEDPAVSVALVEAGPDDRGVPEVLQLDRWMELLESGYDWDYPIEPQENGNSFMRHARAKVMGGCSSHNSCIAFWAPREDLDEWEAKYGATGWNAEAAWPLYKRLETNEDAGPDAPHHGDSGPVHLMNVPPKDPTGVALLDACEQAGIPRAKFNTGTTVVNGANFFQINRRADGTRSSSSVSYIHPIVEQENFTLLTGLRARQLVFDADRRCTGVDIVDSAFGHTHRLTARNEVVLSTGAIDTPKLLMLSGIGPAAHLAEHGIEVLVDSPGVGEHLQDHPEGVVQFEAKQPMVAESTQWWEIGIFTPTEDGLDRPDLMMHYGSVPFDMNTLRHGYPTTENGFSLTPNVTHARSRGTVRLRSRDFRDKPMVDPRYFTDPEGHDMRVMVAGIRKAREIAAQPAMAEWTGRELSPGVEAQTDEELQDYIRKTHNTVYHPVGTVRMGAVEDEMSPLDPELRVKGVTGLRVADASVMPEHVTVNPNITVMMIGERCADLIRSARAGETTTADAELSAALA
Experimental: In this Example, experiments conducted to assess the stabilization of choline oxidase in the presence of its substrate (i.e., choline) and an inhibitor (i.e., sodium bisulfite and 2-amino,2-methyl,1-propanol) is described. In these experiments, AATCC standard detergent was used.
(§1) The experiments were conducted as described in Example 1. Choline oxidase produces two moles of H2O2 per mole of choline. The results obtained in these experiments confirmed that choline oxidase was stable in AATCC detergent over 24 hour period tested in presence of choline and inhibitors. […] Upon dilution in wash liquor, detergent containing choline oxidase, choline chloride and an inhibitor (e.g., sodium hydrogen sulfite or 2-amino,2-methyl,1-propanol) produced H2O2 over time, as indicated in Table 5.

choline oxidase [2] = target: T1, choline oxidase; test: H2O2 in wash liquor with choline oxidase, choline chloride and inhibitor; format: biochemical; conditions: 2 mM choline chloride, 0.02U enzyme, 0.4 mM AMP inhibitor
Experimental: as §1

glucose oxidase [3] = target: T2, glucose oxidase (Aspergillus niger, UniProt P13006); test: Premature hydrogen peroxide generation by glucose oxidase in control buffer or AATCC liquid detergent stock (as is) with glucose and inhibitor, dipsticks; format: biochemical; conditions: 2 M hydroxylamine; detergent containing 1 M glucose and 500 PPM glucose oxidase
T2 construct: purchased Genencor OXYGO L-5000

glucose oxidase [4] = target: T2, glucose oxidase; test: as above; format: biochemical; conditions: 1 M inhibitor; same methods as Examples 1-4
Text: In this Example, experiments conducted to assess the stabilization of glucose oxidase in the presence of its substrate (i.e., glucose) and an inhibitor (i.e., sodium hydrogen sulfite) is described. In these experiments, AATCC standard detergent (American Association of Textile Chemists and Colorists Heavy Duty Liquid detergent version 2003 without brightener; key components include linear alkane sulfonate, alcohol ethoxylate, propanediol, citric acid, fatty acid, castic soda and water; purchased from TestFabrics) was used.
In these experiments, 100 mM Tris pH 8.3, with 0.005% TWEEN®-100 surfactant used as a positive control. […] Three two-ml tubes were weighed with 0.990 g of AATCC detergent (lot # 01282004) and another three tubes with 0.990 g of control buffer. Then, 90 mg (500 mM) of glucose substrate were added to all of the tubes. Next, 100, 50, and 10 mM sodium hydrogen sulfite (MW 106.1) were added to each tube respectively, including the control buffer and AATCC detergent control. All of the tubes were placed on a rotary plate for an hour to allow good mixing and solubilization of glucose into the detergent. Then, 500 PPM (0.5 mg, 14.88 ul) glucose oxidase (OXYGO™ L-5000, 5379 U/ml; 33.6 mg/ml; Genencor) was added to six 2-ml tubes (three with glucose/bisulfite containing control buffers and three with glucose/bisulfite containing AATCC detergent). All of the tubes were then set on the rotary plate (60 rpm) at room temperature. Hydrogen peroxide production was measured using dipsticks (peroxidase/ABTS—Baker Testrips;Baker) at various times—t=0+minutes, 12 minutes, and 30 minutes. The tube containing 100 mM bisulfite with glucose, glucose oxidase in liquid detergent was further monitored for premature generation of hydrogen peroxide further over a period of time starting at 1 hr, 12 hr, 7 days, 12 days and up to 21 days.
In these experiments, 100 mM Tris pH 8.3, with 0.005% TWEEN®-100 surfactant was used as a positive control. […] Three two-ml tubes were weighed with 0.990 g of AATCC detergent (lot # 01282004) and another three tubes with 0.990 g of control buffer.
Three two-ml tubes containing 0.990 g of AATCC detergent (lot # 01282004) and another three tubes with 0.990 g of control buffer were weighed. Then, 90 mg (500 mM) glucose substrate was added to each tube. Then, 100, 50, and 10 mM sodium metabisulfite were added to each tube respectively (i.e., both control buffer and AATCC detergent-containing tubes). All of the tubes were placed on a rotary plate for an hour to allow good mixing and solubilization of glucose into the detergent. Next, 500 PPM (0.5 mg, 14.88 ul) glucose oxidase (OXYGO™ L-5000, 5379 U/ml; 33.6 mg/ml; Genencor) was added to six 2-ml tubes (three with glucose/metabisulfite containing control buffers and three with glucose/metabisulfite containing AATCC detergent). All of the tubes were then set on the rotary plate (60 rpm) at room temperature. H2O2 production was measured using dipsticks (peroxidase/ABTS), as described in Examples 1 and 2, for t=0+ minutes, 12 minutes, and 30 minutes. The tube containing 100 mM bisulfite with glucose, glucose oxidase in liquid detergent was further monitored for premature generation of hydrogen peroxide further over a period of time starting at 1 hr, 12 hr, 7 days, 12 days and up to 21 days.

alcohol oxidase [5] = target: T3, alcohol oxidase (Pichia angusta, UniProt P04841); test: Hydrogen peroxide concentration in control buffer or AATCC liquid detergent stock (as is) with alcohol oxidase, ethanol and inhibitor; format: biochemical, Hansunela sp.; conditions: for H2O2 PPM: as is, 1 M ethanol, 10U enzyme, 100 mM inhibitor
T3 construct: purchased Sigma
Experimental: In these experiments, the stability of alcohol oxidase obtained from Hansunela sp., (100 U/ml. 22 U/mg, 13 mg total solid in vial, 7.7 U/mg solid; Sigma) in AATCC liquid detergent was tested. In these experiments, 10 U of the alcohol oxidase were used in liquid detergent stock for each experiment. For testing, 1M ethanol was mixed into the detergent (46 mg ethanol in 990 mg detergent). […] The experiments were conducted as described above in Examples 1 and 3.

alcohol oxidase [6] = target: T3, alcohol oxidase; test: Hydrogen peroxide concentration in wash liquor with alcohol oxidase, ethanol and inhibitor; format: biochemical, Hansunela sp.; conditions: 2 mM ethanol, 0.02U enzyme, 0.2 mM inhibitor
Experimental: The stability and activity of the alcohol oxidase enzyme (described in Example 5) in AATCC liquid detergent (Sigma, 100 U/ml. 22 U/mg, 13 mg total solid in vial, 7.7 U/mg solid) was tested upon dilution into wash liquor. In these experiments, 10 U of alcohol oxidase were used in liquid detergent stock for each experiment. In addition, 1M ethanol (substrate) was mixed in detergent (46 mg ethanol in 990 mg detergent). […] In these experiments, 10 ul of final detergent mix or control mix were added to 5 ml of wash liquor. The same methods as described in Examples 2 and 4 were used in these experiments.

T3 sequence (P04841 whole entry): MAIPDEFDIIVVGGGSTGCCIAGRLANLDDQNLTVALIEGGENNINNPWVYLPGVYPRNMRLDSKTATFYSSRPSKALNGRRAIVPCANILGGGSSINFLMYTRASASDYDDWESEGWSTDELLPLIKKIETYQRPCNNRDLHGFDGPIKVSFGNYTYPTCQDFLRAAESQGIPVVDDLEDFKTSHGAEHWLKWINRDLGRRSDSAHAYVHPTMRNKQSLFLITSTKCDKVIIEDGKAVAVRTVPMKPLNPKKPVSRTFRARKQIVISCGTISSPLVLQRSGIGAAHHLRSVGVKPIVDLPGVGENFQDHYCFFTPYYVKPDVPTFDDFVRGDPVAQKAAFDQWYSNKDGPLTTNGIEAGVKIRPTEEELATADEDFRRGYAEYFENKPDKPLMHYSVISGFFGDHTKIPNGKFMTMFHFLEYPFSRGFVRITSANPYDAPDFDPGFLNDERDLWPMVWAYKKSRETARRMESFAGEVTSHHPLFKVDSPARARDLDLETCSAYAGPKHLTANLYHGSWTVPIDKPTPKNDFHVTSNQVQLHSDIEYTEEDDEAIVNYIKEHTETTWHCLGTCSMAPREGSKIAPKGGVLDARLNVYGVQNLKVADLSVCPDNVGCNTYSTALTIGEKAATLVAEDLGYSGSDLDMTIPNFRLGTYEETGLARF
T2 sequence (P13006 17-605): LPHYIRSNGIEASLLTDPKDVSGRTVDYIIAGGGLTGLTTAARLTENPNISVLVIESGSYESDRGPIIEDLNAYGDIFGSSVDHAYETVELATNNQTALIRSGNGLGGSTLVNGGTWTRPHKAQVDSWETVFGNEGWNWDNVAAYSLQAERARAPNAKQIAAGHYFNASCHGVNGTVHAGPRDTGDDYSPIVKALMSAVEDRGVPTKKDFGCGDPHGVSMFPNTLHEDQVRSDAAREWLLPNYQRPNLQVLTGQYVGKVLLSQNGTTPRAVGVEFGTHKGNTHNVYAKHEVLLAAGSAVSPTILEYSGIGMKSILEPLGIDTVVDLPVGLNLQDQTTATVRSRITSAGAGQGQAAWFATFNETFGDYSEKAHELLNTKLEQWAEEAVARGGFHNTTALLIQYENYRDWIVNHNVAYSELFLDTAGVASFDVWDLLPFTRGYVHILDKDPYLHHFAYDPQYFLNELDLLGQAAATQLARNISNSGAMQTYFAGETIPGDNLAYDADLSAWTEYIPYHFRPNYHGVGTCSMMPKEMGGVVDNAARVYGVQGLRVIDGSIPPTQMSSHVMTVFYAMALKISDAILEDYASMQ

## CC(C)(N)CO [AMP, 2-amino,2-methyl,1-propanol]
Choline oxidase [1]; AATCC Detergent, T = 0+, 1U enzyme, 100 mM AMP inhibitor
  H2O2 PPM: 0 PPM
Choline oxidase [1]; AATCC Detergent, T = 12 min, 1U enzyme, 100 mM AMP inhibitor
  H2O2 PPM: 1 PPM
Choline oxidase [1]; AATCC Detergent, T = 12 min, 1U or 10U enzyme, 200 mM AMP (pH ~9.3)
  H2O2 PPM: 0 PPM
Choline oxidase [1]; AMP used at 200 mM
  premature regeneration of H2O2 in detergent: stops premature regeneration of H2O2
Choline oxidase [1]; Control Buffer, T = 0+, 1U enzyme, 100 mM AMP inhibitor
  H2O2 PPM: 0 PPM
Choline oxidase [1]; Control Buffer, T = 12 min, 1U enzyme, 100 mM AMP inhibitor
  H2O2 PPM: 1 PPM
Choline oxidase [1]; Control Buffer, T = 12 min, 1U or 10U enzyme, 200 mM AMP (pH ~9.3)
  H2O2 PPM: 0 PPM
Choline oxidase [1]; sodium hydrogen sulfite at 100 mM concentration tested
  character of choline oxidase inhibition: reversible inhibitor
Choline oxidase [2]; AATCC Detergent, T = 0+
  H2O2 PPM: 1 PPM
Choline oxidase [2]; AATCC Detergent, T = 12 min
  H2O2 PPM: 3 PPM
Choline oxidase [2]; AATCC Detergent, T = 30 min
  H2O2 PPM: 3 PPM
Choline oxidase [2]; AATCC Detergent, T = 60 min
  H2O2 PPM: 10 PPM
Choline oxidase [2]; Control Buffer, T = 0+
  H2O2 PPM: 1 PPM
Choline oxidase [2]; Control Buffer, T = 12 min
  H2O2 PPM: 3 PPM
Choline oxidase [2]; Control Buffer, T = 30 min
  H2O2 PPM: 3 PPM
Choline oxidase [2]; Control Buffer, T = 60 min
  H2O2 PPM: 10 PPM

## NO [hydroxylamine]
Glucose oxidase [3]
  stabilization of premature hydrogen peroxide generation: can stabilize premature hydrogen peroxide generation

## [F-].[Na+] [sodium fluoride]
Glucose oxidase [4]
  glucose oxidase inhibition: small degree of glucose oxidase inhibition

## O=S(O)(O)=S [sodium thiosulfate]
Glucose oxidase [4]
  glucose oxidase inhibition: small degree of glucose oxidase inhibition
Alcohol oxidase [5]; 100 mM concentration tested
  character of alcohol oxidase inhibition: week inhibitor
Alcohol oxidase [5]; AATCC Detergent, T = 0+
  H2O2 PPM: 3 PPM
Alcohol oxidase [5]; AATCC Detergent, T = 120 min
  H2O2 PPM: (>10--thiosulfate) PPM
Alcohol oxidase [5]; Control Buffer, T = 0+
  H2O2 PPM: ˜10 PPM
Alcohol oxidase [5]; Control Buffer, T = 120 min
  H2O2 PPM: 0 PPM
Alcohol oxidase [6]; AATCC Detergent, T = 0+
  H2O2 PPM: 0 PPM
Alcohol oxidase [6]; AATCC Detergent, T = 30 min
  H2O2 PPM: 0 PPM
Alcohol oxidase [6]; AATCC Detergent, T = 120 min
  H2O2 PPM: >3 (thiosulfate) PPM
Alcohol oxidase [6]; Control Buffer, T = 0+
  H2O2 PPM: 0 PPM
Alcohol oxidase [6]; Control Buffer, T = 30 min
  H2O2 PPM: 0 PPM
